Experimental findings from patent US6541480B2, “1-aryl-1,8-naphthylidin-4-one derivative as type IV phosphodiesterase inhibitor” (Suntory Limited, priority 1997, dated 2003) are described below.

pIC50: −log10 of the molar value. Counter-ions that a name gives are not always drawn.

For data set [1], the system named is type IV phosphodiesterase. Description: Type IV phosphodiesterase inhibiting activity (3H-cAMP hydrolysis, PDE IV fraction from U937 cells). As to conditions: PDE IV fraction from human U937 cells, 30° C., 30 minutes. It counts as biochemical. As for the experimental part: (1) Method of Measurement of Type IV Phosphodiesterase Inhibiting Activity
The following assay was used to evaluate the ability of the compound of the present invention to suppress type IV phosphodiesterase, according to Biochemical.
1) Type IV phosphodiesterase activity fractions were prepared as follows. Human histiocytic lymphoma cell line U937 was cultured in an RPMI1640 medium containing 10% fetal calf serum to obtain 10^9 cells of U937. The cells were recovered by centrifugation and suspended in 40 ml of buffer A (20 mM bis-tris, 5 mM 2-mercaptoethanol, 2 mM benzamidine, 2 mM EDTA, 0.1 mM 4-(2-aminoethyl)benzensulfonyl hydrochloride, 50 mM sodium acetate, pH=6.5). The cells were broken by a sonication and centrifuged (4° C., 10,000G, 10 minutes) to obtain a supernatent. This was filtered by a 0.45 μm filter to obtain the soluble fraction.
The soluble fraction obtained was applied into a 1×10 cm DEAE Sepharose column equalibrated with the buffer A. 120 ml of the buffer A containing a linear gradient solution of 0.05 to 1 M sodium acetate was used to separate the phosphodiesterase and recover 24 5-ml fractions. Each of the fractions was measured for the cAMP phosphodiesterase activity.
2) The test compound was reacted at a desired concentration in a reaction mixture containing 20 mM tris-HCl (pH 7.5), 1 mM MgCl2, 100 μM EDTA, 330 μg/ml calf serum albumin, 10 μg/ml 5′-nucleotidase, 0.4 μCi ^3H-cAMP ([…] cAMP) and the type IV phosphodiesterase stored solution at 30° C. for 30 minutes. QAE-Sephadex suspended in 10 mM of hepes-Na (pH-7.0) was added to the reaction mixture which was then allowed to stand for 5 minutes, then the supernatant was obtained, QAE-Sephadex was further added, to the supernatant, and was allowed to stand for 5 minutes, then the supernatant was obtained and measured for radioactivity.

The test system of data set [2] is TNF-α production by LPS stimulated mouse peritoneal macrophages. Description: TNF-α production inhibitory activity by LPS stimulated macrophages (ELISA). It counts as cell-based. Particulars: LPS 10 μg/ml, 8 hours. As for the experimental part: (1) Method of Measurement of TNF-α Production Inhibitory Activity by LPS Stimulated Macrophages
The following assay was used to evaluate the ability of the compound of the present invention to suppress TNF-α production by LPS stimulated macrophages according to Immuno pharmacol. 29, 121-127 (1995).
1) 6 to 10 week old female BALB/c mice were used, 2 ml portions of thioglycolate were intraperitoneally administered, and the abdominal cavities were washed by 10 ml of PBS after 4 days, whereby 1 to 2×10^7 peritoneal cells were obtained per mouse. These were suspended in a hemocyte solution (0.75% ammonium chloride, 17 mM tris-hydrochlorate buffer, pH7.2), centrifuged, then resuspended in an RPMI1640 medium including 10% fetal calf serum and seeded in a 96-well cell culture plate at a density of 1×10^5 cells/50 μl/well. Since these cells adhered strongly to the tissue culture plate and were positive in nonspecific esterase staining, they were used for the test as mouse peritoneal macrophages. Mouse peritoneal macrophages were precultured overnight at 37° C. in 5% CO2 for the experiment.
2) E. Coli (serum type 055:B5) derived LPS was dissolved in PBS in a concentration of 1 mg/ml, then sterilized by filtration. The test compound was dissolved in DMSO to make a 1000-fold concentration solution of the final concentration of use. 10 μl of the above LPS stock solution (final concentration 10 μg/ml) and 1 μl of the tested substance stock solution were added and mixed in 0.5 ml of RPMI1640 medium containing 10% fetal calf serum. This was added to the above cells at 50 μl/well and cultured for 8 hours. The cultured supernatant was recovered from each well and the TNF-α concentration was measured by the ELISA method (Cytoscreen® Immunoassay Kit Mouse TNF-α, BioSource International).

Data set [3] in a line: 28-day repeated administration toxicity in mice. It counts as in vivo. Particulars: 10 mg/kg per day administered for 28 days to mice.

In the case of `O=C(Nc1cccnc1)c1cn(-c2ccc(F)cc2)c2ncccc2c1=O` [Example 102, 1-(4-Fluorophenyl)-N-(3-pyridyl)-1,4-dihydro[1,8]naphthylidin-4-one-3-carboxamide], the pIC50 in data set [1] is 7.46; in data set [2] (Peritoneal macrophage), 7.00. For the same compound, in data set [3], the death result was “no death”.

As for `O=C(Nc1cccc([N+](=O)[O-])c1)c1cn(-c2ccc(F)cc2)c2ncccc2c1=O` [Example 94, 1-(4-Fluorophenyl)-N-(3-nitrophenyl)-1,4-dihydro[1,8]naphthylidin-4-one-3-carboxamide], the values for the pIC50 in data set [1] and in data set [2] (Peritoneal macrophage) were 6.46 and 6.30, respectively.

Take `Nc1ccc(NC(=O)c2cn(-c3ccc(F)cc3)c3ncccc3c2=O)cc1` [Example 92, N-(4-aminophenyl)-1-(4-fluorophenyl)-1,4-dihydro[1,8]naphthylidin-4-one-3-carboxamide]: the pIC50 is 6.85 in data set [1] and 6.70 in data set [2] (Peritoneal macrophage).

In the case of `O=C(NC1CCCCC1)c1cn(-c2ccc(F)cc2)c2ncccc2c1=O` [Example 57, N-cyclohexyl-1-(4-fluorophenyl)-1,4-dihydro[1,8]naohthylidin-4-one-3-carboxamide], the pIC50 is 6.15 in data set [1] and 6.00 in data set [2] (Peritoneal macrophage).

For the compound `O=C(Nc1c(Cl)cccc1Cl)c1cn(-c2ccc(F)cc2)c2ncccc2c1=O` [Example 99, N-(2,6-Dichlorophenyl)-1-(4-fluorophenyl)-1,4-dihydro[1,8]naphthylidin-4-one-3-carboxamide], the results for the pIC50 in data set [1] and in data set [2] (Peritoneal macrophage) were 8.47 and 7.60, respectively. Further, the death entry in data set [3] is on record as “no death”.

As for `CC(C)CNC(=O)c1cn(-c2ccc(F)cc2)c2ncccc2c1=O` [Example 55, 1-(4-Fluorophenyl)-N-isobutyl-1,4-dihydro[1,8]naphthylidin-4-one-3-carboxamide], the pIC50 in data set [1] is 7.51; in data set [2] (Peritoneal macrophage), 7.00.

With `O=C(NCc1ccncc1)c1cn(-c2ccc(F)cc2)c2ncccc2c1=O` [Example 64, 1-(4-Fluorophenyl)-N-(4-pyridyl)methyl-1,4-dihydro[1,8]naphthylidin-4-one-3-carbdxamide], the figures for the pIC50 in data set [1] and in data set [2] (Peritoneal macrophage) were 6.92 and 7.00, respectively.

Regarding `Cc1cccc(C)c1NC(=O)c1cn(-c2ccc(F)cc2)c2ncccc2c1=O` [Example 72, 1-(4-Fluorophenyl)-N-(2,6-xylidyl)-1,4-dihydro[1,8]naphthylidin-4-one-3-carboxamide], the pIC50 is 6.74 in data set [1] and 8.00 in data set [2] (Peritoneal macrophage).

Consider `O=C(Nc1c(Cl)cncc1Cl)c1cn(-c2ccncc2)c2ncccc2c1=O` [Example 141, N-(3,5-Dichloropyridin-4-yl)-1-(4-pyridyl)-1,4-dihydro[1,8]naphthylidin-4-one-3-carboxamide], for which the pIC50 in data set [1] was 9.30; in data set [2] (Peritoneal macrophage), 9.00. In addition, in data set [3], the death result was “no death”.

Take `O=C(NCCc1ccccc1)c1cn(-c2ccc(F)cc2)c2ncccc2c1=O` [Example 65, 1-(4-Fluorophenyl)-N-(2-phenylethyl)-1,4-dihydro[1,8]naphthylidin-4-one-3-carboxamide]: the values for the pIC50 in data set [1] and in data set [2] (Peritoneal macrophage) were 6.57 and 6.22, respectively.

As for `O=C(Nc1ccncc1)c1cn(-c2ccc(OCc3ccccc3)nc2)c2ncccc2c1=O` [Example 144, 1-(2-Benzyloxypyridin-5-yl)-N-(4-pyridyl)-1,4-dihydro[1,8]naphthylidin-4-one-3-carboxamide], the pIC50 was 6.85 in data set [1] and 6.15 in data set [2] (Peritoneal macrophage).

Turning to `O=C(NCC1CC1)c1cn(-c2ccc(F)cc2)c2ncccc2c1=O` [Example 56, N-cyclopropylmethyl-1-(4-fluorophenyl)-1,4-dihydro[1,8]naohthylidin-4-one-3-carboxamide], the pIC50 in data set [1] was 7.59; in data set [2], 8.40.

As for `Cc1cnccc1NC(=O)c1cn(-c2ccncc2)c2ncccc2c1=O` [Example 140, N-(3-Methylpyridin-4-yl)-1-(4-pyridyl)-1,4-dihydro[1,8]naphthylidin-4-one-3-carboxamide], the pIC50 in data set [1] was 7.44; in data set [2] it was 8.30.

With `Cc1cnccc1NC(=O)c1cn(-c2ccc(F)cc2)c2ncccc2c1=O` [Example 104, 1-(4-Fluorophenyl)-N-(3-methylpyridin-4-yl)-1,4-dihydro[1,8]naphthylidin-4-one-3-carboxamide], the results for the pIC50 in data set [1] and in data set [2] (Peritoneal macrophage) were 7.72 and 9.52, respectively.

As to `O=C(Nc1ccccc1O)c1cn(-c2ccc(F)cc2)c2ncccc2c1=O` [Example 73, 1-(4-Fluorophenyl)-N-(2-hydroxyphenuyl)-1,4-dihydro[1,8]naphthylidin-4-one-3-carboxamide], the pIC50 in data set [1] was 6.09; in data set [2] (Peritoneal macrophage), 6.00.

Turning to `O=C(Nc1cccnc1)c1cn(-c2ccncc2)c2ncccc2c1=O` [Example 138, N-(3-Pyridyl)-1-(4-pyridyl)-1,4-dihydro[1,8]naphthylidin-4-one-3-carboxamide], the values for the pIC50 in data set [1] and in data set [2] (Peritoneal macrophage) were 7.36 and 6.40, respectively.

As to `O=C(Nc1c(Cl)cccc1Cl)c1cn(-c2ccncc2)c2ncccc2c1=O` [Example 137, N-(2,6-Dichlorophenyl)-1-(4-pyridyl)-1,4-dihydro[1,8]naphthylidin-4-one-3-carboxamide], the figures for the pIC50 in data set [1] and in data set [2] (Peritoneal macrophage) were 8.31 and 8.40, respectively.

In the case of `CC(C)NC(=O)c1cn(-c2ccc(F)cc2)c2ncccc2c1=O` [Example 53, 1-(4-Fluorophenyl)-N-isopropyl-1,4-dihydro[1,8]naphthylidin-4-one-3-carboxamide], the pIC50 was 7.57 in data set [1] and 8.00 in data set [2] (Peritoneal macrophage).

Consider `Cc1ccccc1NC(=O)c1cn(-c2ccc(F)cc2)c2ncccc2c1=O` [Example 69, 1-(4-Fluorophenyl)-N-(2-tolyl)-1,4-dihydro[1,8]naphthylidin-4-one-3-carboxamide], for which the negative logarithm of the IC50 (pIC50) in data set [1] is 7.89; in data set [2] (Peritoneal macrophage), 7.00.

With `Nc1ccc(-n2cc(C(=O)Nc3ccncc3)c(=O)c3cccnc32)cn1` [Example 143, 1-(2-Aminopyridin-5-yl)-N-(4-pyridyl)-1,4-dihydro[1,8]naphthylidin-4-one-3-carboxamide hydrochloride], the negative logarithm of the IC50 (pIC50) is 6.85 in data set [1] and 6.82 in data set [2] (Peritoneal macrophage).

For the compound `C=CCNC(=O)c1cn(-c2ccc(F)cc2)c2ncccc2c1=O` [Example 54, N-allyl-1-(4-fluorophenyl)-1,4-dihydro[1,8]naphthylidin-4-one-3-carboxamide], the pIC50 in data set [1] is 7.46; in data set [2] (Peritoneal macrophage), 7.00.

Consider `O=C(Nc1c(Cl)cncc1Cl)c1cn(-c2ccc(OCc3ccccc3)nc2)c2ncccc2c1=O` [Example 146, 1-(2-Benzyloxypyridin-5-yl)-N-(3,5-dichloropyridin-4-yl)-1,4-dihydro[1,8]naphthylidin-4-one-3-carboxamide], for which the pIC50 is 8.77 in data set [1] and 8.00 in data set [2] (Peritoneal macrophage).

As to `O=C(Nc1cccc(O)c1)c1cn(-c2ccc(F)cc2)c2ncccc2c1=O` [Example 74, 1-(4-Fluorophenyl)-N-(3-hydroxythenyl)-1,4-dihydro[1,8]naphthylidin-4-one-3-carboxamide], the values for the pIC50 in data set [1] and in data set [2] (Peritoneal macrophage) were 6.38 and 6.40, respectively.

Take `O=C(Nc1ccncc1)c1cn(-c2ccccn2)c2ncccc2c1=O` [Example 132, N-(4-Pyridyl)-1-(2-pyridyl)-1,4-dihydro[1,8]naphthylidin-4-one-3-carboxamide]: the pIC50 in data set [1] was 6.12; in data set [2] (Peritoneal macrophage), 6.00.

On to `Nc1cccc(NC(=O)c2cn(-c3ccc(F)cc3)c3ncccc3c2=O)c1` [Example 91, N-(3-aminophenyl)-1-(4-fluorophenyl)-1,4-dihydro[1,8]naphthylidin-4-one-3-carboxamide], for which the pIC50 in data set [1] was 7.28; in data set [2] (Peritoneal macrophage), 7.00.
